Test results: patent US6410480B1, “Herbicidally active 3-hydroxy-4-aryl-5-oxopyrazoline derivatives” (Syngenta Crop Protection, Inc., priority 1998, dated 2002)

Legend:
Assay type in all cases: in vivo
[1] = test system: Avena; test: Example B4: post-emergence herbicidal action of compounds of the invention; set-up: key: 1=complete damage; 9=no effect; Ratings of 1 to 4 (in particular 1 to 3) mean a good to very good herbicidal action; conditions: 3- to 6-leaf stage, 250 g of active substance/ha, 3 weeks after application, scale 1-9
Method: (§1) Monocotyledonous and dicotyledonous weeds are grown in standard soil in plastic pots under greenhouse conditions. The test substances are applied at the 3- to 6-leaf stage of the test plants. The test substances are applied (500 l of water/ha) as an aqueous suspension (prepared using a 25% wettable powder (Example F3, b)) or as an emulsion (prepared using a 25% emulsion concentrate (Example F1, c)) at an application rate of 250 g of active substance/ha. 3 weeks after the application, evaluation is carried out using a nine-level scale of ratings (1=complete damage, 9=no effect). Ratings of 1 to 4 (in particular 1 to 3) mean a good to very good herbicidal action. Test plants: Avena (Ave), Lolium (Lol), Setaria (Set).

[2] = test system: Lolium; test: as above; set-up: key: 1=complete damage; 9=no effect; Ratings of 1 to 4 (in particular 1 to 3) mean a good to very good herbicidal action; conditions: 3- to 6-leaf stage, 250 g of active substance/ha, 3 weeks after application, scale 1-9
Method: as §1

[3] = test system: Setaria; test: as above; set-up: key: 1=complete damage; 9=no effect; Ratings of 1 to 4 (in particular 1 to 3) mean a good to very good herbicidal action; conditions: 3- to 6-leaf stage, 250 g of active substance/ha, 3 weeks after application, scale 1-9
Method: as §1

[4] = test system: all of the weeds tested; test: Experimental comparison with the prior art: herbicidal action, pre- and post-emergence, overall statement; conditions: 500 g of active substance/ha, against all of the weeds tested
Description: The following compounds were examined for their herbicidal activity: Monocotyledonous and dicotyledonous weeds are sown in standard soil in plastic pots. Immediately after sowing, the test substances are applied (500 l of water/ha) as an aqueous suspension (prepared using a 25% wettable powder (Example F3, b)) or as an emulsion (prepared using a 25% emulsion concentrate (Example F1, c)). The application rate is 500 g of active substance/ha. The test plants are subsequently grown under optimum conditions in a greenhouse. 3 weeks after the application, evaluation is carried out using a nine-level scale of ratings (1=complete damage, 9=no effect). Ratings of 1 to 4 (in particular 1 to 3) mean a good to very good herbicidal action. Test plants: Alopecurus (Alo), Avena (Ave), Lolium (Lot), Setaria (Set), Panicum (Pan), Sorghum (Sor), Digitaria (Dig), Echinocloa (Ech) and Brachiaria (Bra). Monocotyledonous and dicotyledonous weeds are grown in standard soil in plastic pots under greenhouse conditions. The test substances are applied at the 3- to 6-leaf stage of the test plants. The test substances are applied (500 l of water/ha) as an aqueous suspension (prepared using a 25% wettable powder (Example F3, b)) or as an emulsion (prepared using a 25% emulsion concentrate (Example F1, c)) at an application rate of 500 g of active substance/ha. […]

[5] = test system: Alopecurus; test: Example B1: pre-emergence herbicidal action, comparison with prior art; conditions: 500 g of ai/ha, 3 weeks after application, scale 1-9
Description: (§2) Monocotyledonous and dicotyledonous weeds are sown in standard soil in plastic pots. Immediately after sowing, the test substances are applied (500 l of water/ha) as an aqueous suspension (prepared using a 25% wettable powder (Example F3, b)) or as an emulsion (prepared using a 25% emulsion concentrate (Example F1, c)). The application rate is 500 g of active substance/ha. The test plants are subsequently grown under optimum conditions in a greenhouse. 3 weeks after the application, evaluation is carried out using a nine-level scale of ratings (1=complete damage, 9=no effect). Ratings of 1 to 4 (in particular 1 to 3) mean a good to very good herbicidal action. Test plants: Alopecurus (Alo), Avena (Ave), Lolium (Lot), Setaria (Set), Panicum (Pan), Sorghum (Sor), Digitaria (Dig), Echinocloa (Ech) and Brachiaria (Bra).

[6] = test system: Avena; test: as above; conditions: 500 g of ai/ha, 3 weeks after application, scale 1-9
Description: as §2

[7] = test system: Brachiaria; test: as above; conditions: 500 g of ai/ha, 3 weeks after application, scale 1-9
Description: as §2

[8] = test system: Digitaria; test: as above; conditions: 500 g of ai/ha, 3 weeks after application, scale 1-9
Description: as §2

[9] = test system: Echinocloa; test: as above; conditions: 500 g of ai/ha, 3 weeks after application, scale 1-9
Description: as §2

[10] = test system: Lolium; test: as above; conditions: 500 g of ai/ha, 3 weeks after application, scale 1-9
Description: as §2

[11] = test system: Panicum; test: as above; conditions: 500 g of ai/ha, 3 weeks after application, scale 1-9
Description: as §2

[12] = test system: Setaria; test: as above; conditions: 500 g of ai/ha, 3 weeks after application, scale 1-9
Description: as §2

[13] = test system: Sorghum; test: as above; conditions: 500 g of ai/ha, 3 weeks after application, scale 1-9
Description: as §2

[14] = test system: Alopecurus; test: Example B2: post-emergence herbicidal action, comparison with prior art; conditions: 3- to 6-leaf stage, 500 g of ai/ha, 3 weeks after application, scale 1-9
Method: as §1, with “500” for “250”, “plants: Alopecurus (Alo),” for “plants:”, “(Set), Panicum (Pan), Sorghum (Sor), Digitaria (Dig), Echinocloa (Ech) and Brachiaria (Bra).” for “(Set).”

[15] = test system: Avena; test: as above; set-up: key: 1=complete damage; 9=no effect; Ratings of 1 to 4 (in particular 1 to 3) mean a good to very good herbicidal action; conditions: 3- to 6-leaf stage, 500 g of ai/ha, 3 weeks after application, scale 1-9
Method: as §1, with “500” for “250”, “plants: Alopecurus (Alo),” for “plants:”, “(Set), Panicum (Pan), Sorghum (Sor), Digitaria (Dig), Echinocloa (Ech) and Brachiaria (Bra).” for “(Set).”

[16] = test system: Brachiaria; test: as above; set-up: key: 1=complete damage; 9=no effect; Ratings of 1 to 4 (in particular 1 to 3) mean a good to very good herbicidal action; conditions: 3- to 6-leaf stage, 500 g of ai/ha, 3 weeks after application, scale 1-9
Method: as §1, with “500” for “250”, “plants: Alopecurus (Alo),” for “plants:”, “(Set), Panicum (Pan), Sorghum (Sor), Digitaria (Dig), Echinocloa (Ech) and Brachiaria (Bra).” for “(Set).”

[17] = test system: Digitaria; test: as above; set-up: key: 1=complete damage; 9=no effect; Ratings of 1 to 4 (in particular 1 to 3) mean a good to very good herbicidal action; conditions: 3- to 6-leaf stage, 500 g of ai/ha, 3 weeks after application, scale 1-9
Method: as §1, with “500” for “250”, “plants: Alopecurus (Alo),” for “plants:”, “(Set), Panicum (Pan), Sorghum (Sor), Digitaria (Dig), Echinocloa (Ech) and Brachiaria (Bra).” for “(Set).”

[18] = test system: Echinocloa; test: as above; set-up: key: 1=complete damage; 9=no effect; Ratings of 1 to 4 (in particular 1 to 3) mean a good to very good herbicidal action; conditions: 3- to 6-leaf stage, 500 g of ai/ha, 3 weeks after application, scale 1-9
Method: as §1, with “500” for “250”, “plants: Alopecurus (Alo),” for “plants:”, “(Set), Panicum (Pan), Sorghum (Sor), Digitaria (Dig), Echinocloa (Ech) and Brachiaria (Bra).” for “(Set).”

[19] = test system: Lolium; test: as above; set-up: key: 1=complete damage; 9=no effect; Ratings of 1 to 4 (in particular 1 to 3) mean a good to very good herbicidal action; conditions: 3- to 6-leaf stage, 500 g of ai/ha, 3 weeks after application, scale 1-9
Method: as §1, with “500” for “250”, “plants: Alopecurus (Alo),” for “plants:”, “(Set), Panicum (Pan), Sorghum (Sor), Digitaria (Dig), Echinocloa (Ech) and Brachiaria (Bra).” for “(Set).”

[20] = test system: Panicum; test: as above; set-up: key: 1=complete damage; 9=no effect; Ratings of 1 to 4 (in particular 1 to 3) mean a good to very good herbicidal action; conditions: 3- to 6-leaf stage, 500 g of ai/ha, 3 weeks after application, scale 1-9
Method: as §1, with “500” for “250”, “plants: Alopecurus (Alo),” for “plants:”, “(Set), Panicum (Pan), Sorghum (Sor), Digitaria (Dig), Echinocloa (Ech) and Brachiaria (Bra).” for “(Set).”

[21] = test system: Setaria; test: as above; set-up: key: 1=complete damage; 9=no effect; Ratings of 1 to 4 (in particular 1 to 3) mean a good to very good herbicidal action; conditions: 3- to 6-leaf stage, 500 g of ai/ha, 3 weeks after application, scale 1-9
Method: as §1, with “500” for “250”, “plants: Alopecurus (Alo),” for “plants:”, “(Set), Panicum (Pan), Sorghum (Sor), Digitaria (Dig), Echinocloa (Ech) and Brachiaria (Bra).” for “(Set).”

[22] = test system: Sorghum; test: as above; set-up: key: 1=complete damage; 9=no effect; Ratings of 1 to 4 (in particular 1 to 3) mean a good to very good herbicidal action; conditions: 3- to 6-leaf stage, 500 g of ai/ha, 3 weeks after application, scale 1-9
Method: as §1, with “500” for “250”, “plants: Alopecurus (Alo),” for “plants:”, “(Set), Panicum (Pan), Sorghum (Sor), Digitaria (Dig), Echinocloa (Ech) and Brachiaria (Bra).” for “(Set).”

SMILES: Cc1cc(C)c(-c2c(O)n3n(c2=O)CCOCC3)c(Br)c1 [1.078]
- Post-emergence action, Ave (rating) [1]: 1
- Post-emergence action, Lol (rating) [2]: 1
- Post-emergence action, Set (rating) [3]: 4

SMILES: CCc1cc(Br)cc(C)c1-c1c(OC(=O)C(C)(C)C)n2n(c1=O)CCOCC2 [1.085]
- Post-emergence action, Ave (rating) [1]: 1
- Post-emergence action, Lol (rating) [2]: 2
- Post-emergence action, Set (rating) [3]: 2

SMILES: Cc1cc(Br)c(-c2c(O)n3n(c2=O)CCOCC3)c(Br)c1 [1.088]
- Post-emergence action, Ave (rating) [1]: 4
- Post-emergence action, Lol (rating) [2]: 4
- Post-emergence action, Set (rating) [3]: 3

SMILES: Cc1cc(C)c(C2C(=O)N3CCOCCN3C2=O)c(C)c1 [Compound No. 1.01]
- herbicidal action compared with compound A of the prior art [4]: considerably better herbicidal action

SMILES: CCc1cc(C)cc(CC)c1-c1c(O)n2n(c1=O)CCOCC2 [Compound No. 1.007]
- Post-emergence action, Ave (rating) [1]: 1
- Post-emergence action, Lol (rating) [2]: 1
- Post-emergence action, Set (rating) [3]: 1

SMILES: Cc1cc(C)c(C2C(=O)N3CCCCCN3C2=O)c(C)c1 [compound A, reference compound]
- Pre-emergence action, Alo (rating) [5]: 5
- Pre-emergence action, Ave (rating) [6]: 7
- Pre-emergence action, Bra (rating) [7]: 3
- Pre-emergence action, Dig (rating) [8]: 7
- Pre-emergence action, Ech (rating) [9]: 5
- Pre-emergence action, Lol (rating) [10]: 4
- Pre-emergence action, Pan (rating) [11]: 7
- Pre-emergence action, Set (rating) [12]: 3
- Pre-emergence action, Sor (rating) [13]: 6
- Post-emergence action, Alo (rating) [14]: 5
- Post-emergence action, Ave (rating) [15]: 2
- Post-emergence action, Bra (rating) [16]: 2
- Post-emergence action, Dig (rating) [17]: 5
- Post-emergence action, Ech (rating) [18]: 1
- Post-emergence action, Lol (rating) [19]: 5
- Post-emergence action, Pan (rating) [20]: 2
- Post-emergence action, Set (rating) [21]: 4
- Post-emergence action, Sor (rating) [22]: 3
